Values quoted from earlier work as cited in patent US20110105449A1, “DRY POWDER FORMULATIONS COMPRISING ASCORBIC ACID DERIVATES” (ASTRAZENECA R&D, priority 2007, published 2011).
Values after ≈ are worked out from the molar mass of the structure shown.

Conditions: at 25° C.

Question: Which water solubility does the source give for `CCCC1O[C@@H]2C[C@H]3[C@@H]4CCC5=CC(=O)C=C[C@]5(C)[C@H]4[C@@H](O)C[C@]3(C)[C@]2(C(=O)CO)O1` (stereo partly shown) [Budesonide, budesonide] here?
Answer: The water solubility was 16 µg/mL (≈ 37.2 µM).
